ChEMBL document CHEMBL1201862, “PubChem BioAssay data set” (2004)
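Method: 48-hour compound exposure of cells in 96-well plates, five concentrations, linear interpolation of endpoints. GI50: concentration for 50% inhibition of growth.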 The source made the active and inactive calls. No stated cut-off is given here; in the data, active = GI50 up to about 1.1 µM and inactive = higher.

What was measured:
Test in all cases: NCI anticancer screen, dose series, 48 h
786-0 = system: 786-0
A498 = system: A498
A549 = system: A549
ACHN = system: ACHN
BT-549 = system: BT-549
CAKI-1 = system: CAKI-1
CCRF-CEM = system: CCRF-CEM
EKVX = system: EKVX
HCC 2998 = system: HCC 2998
HCT-116 = system: HCT-116
HCT-15 = system: HCT-15
HL-60 = system: HL-60
HOP-62 = system: HOP-62
HOP-92 = system: HOP-92
HT-29 = system: HT-29
Hs-578T = system: Hs-578T
IGROV-1 = system: IGROV-1
K562 = system: K562
KM12 = system: KM12
LOX IMVI = system: LOX IMVI
M14 = system: M14
MCF7 = system: MCF7
MDA-MB-231 = system: MDA-MB-231
MDA-MB-435 = system: MDA-MB-435
MDA-N = system: MDA-N
MOLT-4 = system: MOLT-4
Malme-3M = system: Malme-3M
NCI-H226 = system: NCI-H226
NCI-H23 = system: NCI-H23
NCI-H460 = system: NCI-H460
NCI-H522 = system: NCI-H522
NCI/ADR-RES = system: NCI/ADR-RES
OVCAR-3 = system: OVCAR-3
OVCAR-4 = system: OVCAR-4
OVCAR-5 = system: OVCAR-5
OVCAR-8 = system: OVCAR-8
PC-3 = system: PC-3
RPMI-8226 = system: RPMI-8226
RXF 393 = system: RXF 393
SF-268 = system: SF-268
SF-295 = system: SF-295
SF-539 = system: SF-539
SK-MEL-28 = system: SK-MEL-28
SK-MEL-2 = system: SK-MEL-2
SK-OV-3 = system: SK-OV-3
SN12C = system: SN12C
SNB-19 = system: SNB-19
SNB-75 = system: SNB-75
SR = system: SR
SW-620 = system: SW-620
TK-10 = system: TK-10
U-251 = system: U-251
UACC-257 = system: UACC-257
UACC-62 = system: UACC-62
UO-31 = system: UO-31
COLO 205 = system: COLO 205
DU-145 = system: DU-145
SK-MEL-5 = system: SK-MEL-5
T47D = system: T47D

CC12CCC(C(=O)O1)C(C)(C)O2 (stereo not given)
GI50 (786-0): > 100 µM (inactive)
GI50 (A498): > 100 µM (inactive)
GI50 (A549): > 100 µM (inactive)
GI50 (ACHN): > 100 µM (inactive)
GI50 (BT-549): > 100 µM (inactive)
GI50 (CAKI-1): > 100 µM (inactive)
GI50 (CCRF-CEM): > 100 µM (inactive)
GI50 (EKVX): > 100 µM (inactive)
GI50 (HCC 2998): > 100 µM (inactive)
GI50 (HCT-116): > 100 µM (inactive)
GI50 (HCT-15): > 100 µM
GI50 (HL-60): > 100 µM (inactive)
GI50 (HOP-62): > 100 µM (inactive)
GI50 (HOP-92): > 100 µM (inactive)
GI50 (HT-29): > 100 µM (inactive)
GI50 (Hs-578T): > 100 µM (inactive)
GI50 (IGROV-1): > 100 µM (inactive)
GI50 (K562): > 100 µM (inactive)
GI50 (KM12): > 100 µM (inactive)
GI50 (LOX IMVI): > 100 µM (inactive)
GI50 (M14): > 100 µM (inactive)
GI50 (MCF7): > 100 µM (inactive)
GI50 (MDA-MB-231): > 100 µM (inactive)
GI50 (MDA-MB-435): > 100 µM (inactive)
GI50 (MDA-N): > 100 µM (inactive)
GI50 (MOLT-4): > 100 µM (inactive)
GI50 (Malme-3M): > 100 µM (inactive)
GI50 (NCI-H226): > 100 µM (inactive)
GI50 (NCI-H23): > 100 µM (inactive)
GI50 (NCI-H460): > 100 µM (inactive)
GI50 (NCI-H522): > 100 µM (inactive)
GI50 (NCI/ADR-RES): > 100 µM (inactive)
GI50 (OVCAR-3): > 100 µM (inactive)
GI50 (OVCAR-4): > 100 µM (inactive)
GI50 (OVCAR-5): > 100 µM (inactive)
GI50 (OVCAR-8): > 100 µM (inactive)
GI50 (PC-3): > 100 µM (inactive)
GI50 (RPMI-8226): > 100 µM (inactive)
GI50 (RXF 393): > 100 µM (inactive)
GI50 (SF-268): > 100 µM (inactive)
GI50 (SF-295): > 100 µM (inactive)
GI50 (SF-539): > 100 µM (inactive)
GI50 (SK-MEL-28): > 100 µM (inactive)
GI50 (SK-MEL-2): > 100 µM (inactive)
GI50 (SK-OV-3): > 100 µM (inactive)
GI50 (SN12C): > 100 µM (inactive)
GI50 (SNB-19): > 100 µM (inactive)
GI50 (SNB-75): > 100 µM (inactive)
GI50 (SR): > 100 µM (inactive)
GI50 (SW-620): > 100 µM (inactive)
GI50 (TK-10): > 100 µM (inactive)
GI50 (U-251): > 100 µM (inactive)
GI50 (UACC-257): > 100 µM (inactive)
GI50 (UACC-62): > 100 µM (inactive)
GI50 (UO-31): > 100 µM (inactive)

CC(C)(CO)NC(=O)c1cccc(C(=O)NC(C)(C)CO)c1Br
GI50 (786-0): > 100 µM (inactive)
GI50 (A549): > 100 µM (inactive)
GI50 (ACHN): > 100 µM (inactive)
GI50 (BT-549): > 100 µM (inactive)
GI50 (CAKI-1): > 100 µM (inactive)
GI50 (COLO 205): > 100 µM (inactive)
GI50 (DU-145): > 100 µM (inactive)
GI50 (EKVX): > 100 µM (inactive)
GI50 (HCC 2998): > 100 µM (inactive)
GI50 (HCT-116): > 100 µM (inactive)
GI50 (HCT-15): > 100 µM
GI50 (HL-60): > 100 µM (inactive)
GI50 (HOP-62): > 100 µM (inactive)
GI50 (HOP-92): > 100 µM (inactive)
GI50 (HT-29): > 100 µM (inactive)
GI50 (IGROV-1): > 100 µM (inactive)
GI50 (K562): > 100 µM (inactive)
GI50 (KM12): > 100 µM (inactive)
GI50 (LOX IMVI): > 100 µM (inactive)
GI50 (M14): > 100 µM (inactive)
GI50 (MCF7): > 100 µM (inactive)
GI50 (MDA-MB-231): > 100 µM (inactive)
GI50 (MDA-MB-435): > 100 µM (inactive)
GI50 (MOLT-4): > 100 µM (inactive)
GI50 (Malme-3M): > 100 µM (inactive)
GI50 (NCI-H226): > 100 µM (inactive)
GI50 (NCI-H23): > 100 µM (inactive)
GI50 (NCI-H460): > 100 µM (inactive)
GI50 (NCI/ADR-RES): > 100 µM (inactive)
GI50 (OVCAR-4): > 100 µM (inactive)
GI50 (OVCAR-5): > 100 µM (inactive)
GI50 (OVCAR-8): > 100 µM (inactive)
GI50 (PC-3): > 100 µM (inactive)
GI50 (RPMI-8226): > 100 µM (inactive)
GI50 (RXF 393): 7.83 µM (inactive)
GI50 (SF-268): > 100 µM (inactive)
GI50 (SF-539): > 100 µM (inactive)
GI50 (SK-MEL-28): > 100 µM (inactive)
GI50 (SK-MEL-2): > 100 µM (inactive)
GI50 (SK-MEL-5): > 100 µM (inactive)
GI50 (SNB-19): > 100 µM (inactive)
GI50 (SNB-75): 32.3 µM (inactive)
GI50 (SR): > 100 µM (inactive)
GI50 (SW-620): > 100 µM (inactive)
GI50 (T47D): > 100 µM (inactive)
GI50 (TK-10): > 100 µM (inactive)
GI50 (U-251): > 100 µM (inactive)
GI50 (UACC-257): > 100 µM (inactive)
GI50 (UACC-62): > 100 µM (inactive)
GI50 (UO-31): > 100 µM (inactive)
